Results as given in PubChem BioAssay AID1745844 (Carcinogenic Potency Database (CPDB), 2022).

Tested on: rodent lifetime carcinogenesis bioassay, tumor incidence TD50
Experiment: chronic cancer bioassays in animals – CPDB, compiled studies (AID 1745844)
Settings: in feed

Nc1c(Br)cc(Br)c2c1C(=O)c1ccccc1C2=O
TD50 (mouse, strain B6C3F1, females, site: any site (literature study), lesion: several types, types named in the paper, dosed 104 weeks, study length 104 weeks): 1030 mg/kg/day
TD50 (mouse, strain B6C3F1, females, site: forestomach + liver + lung, lesion: squamous-cell carcinoma + squamous-cell papilloma + hepatocellular adenoma + hepatocellular carcinoma + alveolar/bronchiolar ade, dosed 104 weeks, study length 104 weeks): 546 mg/kg/day
TD50 (mouse, strain B6C3F1, females, site: forestomach, lesion: squamous-cell carcinoma + squamous-cell papilloma, dosed 104 weeks, study length 104 weeks): 1230 mg/kg/day
TD50 (mouse, strain B6C3F1, females, site: forestomach, lesion: squamous-cell carcinoma, dosed 104 weeks, study length 104 weeks): 3930 mg/kg/day
TD50 (mouse, strain B6C3F1, females, site: forestomach, lesion: squamous-cell papilloma, dosed 104 weeks, study length 104 weeks): 1760 mg/kg/day
TD50 (mouse, strain B6C3F1, females, site: liver, lesion: hepatocellular adenoma + hepatoblastoma + hepatocellular carcinoma, dosed 104 weeks, study length 104 weeks): 490 mg/kg/day
TD50 (mouse, strain B6C3F1, females, site: liver, lesion: hepatocellular adenoma + hepatocellular carcinoma, dosed 104 weeks, study length 104 weeks): 490 mg/kg/day
TD50 (mouse, strain B6C3F1, females, site: liver, lesion: hepatocellular adenoma, dosed 104 weeks, study length 104 weeks): 515 mg/kg/day
TD50 (mouse, strain B6C3F1, females, site: liver, lesion: hepatocellular carcinoma, dosed 104 weeks, study length 104 weeks): 1530 mg/kg/day
TD50 (mouse, strain B6C3F1, females, site: lung, lesion: alveolar/bronchiolar adenoma + alveolar/bronchiolar carcinoma, dosed 104 weeks, study length 104 weeks): 1990 mg/kg/day
TD50 (mouse, strain B6C3F1, females, site: lung, lesion: alveolar/bronchiolar adenoma, dosed 104 weeks, study length 104 weeks): 1990 mg/kg/day
TD50 (mouse, strain B6C3F1, females, site: pituitary gland, lesion: pars distalis adenoma, dosed 104 weeks, study length 104 weeks): 3750 mg/kg/day
TD50 (mouse, strain B6C3F1, females, site: uterus, lesion: endometrial stromal polyp + endometrial stromal sarcoma, dosed 104 weeks, study length 104 weeks): 6820 mg/kg/day
TD50 (mouse, strain B6C3F1, males, site: any site (literature study), lesion: several types, types named in the paper, dosed 103 weeks, study length 104 weeks): 566 mg/kg/day
TD50 (mouse, strain B6C3F1, males, site: forestomach + liver + lung, lesion: squamous-cell carcinoma + squamous-cell papilloma + hepatocellular adenoma + hepatoblastoma + hepatocellular carcinoma + alveolar/, dosed 103 weeks, study length 104 weeks): 465 mg/kg/day
TD50 (mouse, strain B6C3F1, males, site: forestomach, lesion: squamous-cell carcinoma + squamous-cell papilloma, dosed 103 weeks, study length 104 weeks): 1130 mg/kg/day
TD50 (mouse, strain B6C3F1, males, site: forestomach, lesion: squamous-cell carcinoma, dosed 103 weeks, study length 104 weeks): 2730 mg/kg/day
TD50 (mouse, strain B6C3F1, males, site: forestomach, lesion: squamous-cell papilloma, dosed 103 weeks, study length 104 weeks): 1680 mg/kg/day
TD50 (mouse, strain B6C3F1, males, site: liver, lesion: hepatoblastoma + hepatocellular carcinoma, dosed 103 weeks, study length 104 weeks): 1870 mg/kg/day
TD50 (mouse, strain B6C3F1, males, site: liver, lesion: hepatoblastoma, dosed 103 weeks, study length 104 weeks): 9250 mg/kg/day
TD50 (mouse, strain B6C3F1, males, site: liver, lesion: hepatocellular adenoma + hepatoblastoma + hepatocellular carcinoma, dosed 103 weeks, study length 104 weeks): 467 mg/kg/day
TD50 (mouse, strain B6C3F1, males, site: liver, lesion: hepatocellular adenoma + hepatocellular carcinoma, dosed 103 weeks, study length 104 weeks): 467 mg/kg/day
TD50 (mouse, strain B6C3F1, males, site: liver, lesion: hepatocellular adenoma, dosed 103 weeks, study length 104 weeks): 464 mg/kg/day
TD50 (mouse, strain B6C3F1, males, site: liver, lesion: hepatocellular carcinoma, dosed 103 weeks, study length 104 weeks): 2240 mg/kg/day
TD50 (mouse, strain B6C3F1, males, site: lung, lesion: alveolar/bronchiolar adenoma + alveolar/bronchiolar carcinoma, dosed 103 weeks, study length 104 weeks): 817 mg/kg/day
TD50 (mouse, strain B6C3F1, males, site: lung, lesion: alveolar/bronchiolar adenoma, dosed 103 weeks, study length 104 weeks): 831 mg/kg/day
TD50 (rat, strain Fischer 344, females, site: any site (literature study), lesion: several types, types named in the paper, dosed 40 weeks, study length 66 weeks): 135 mg/kg/day
TD50 (rat, strain Fischer 344, females, site: any site (literature study), lesion: several types, types named in the paper, dosed 66 weeks, study length 66 weeks): 147 mg/kg/day
TD50 (rat, strain Fischer 344, females, site: any site (literature study), lesion: several types, types named in the paper, dosed 103 weeks, study length 104 weeks): 160 mg/kg/day
TD50 (rat, strain Fischer 344, females, site: cecum + colon + kidney + liver + rectum + urinary bladder, lesion: polypoid adenoma + adenocarcinoma + tubule adenoma + tubule carcinoma + hepatocholangiocarcinoma + hepatocellular adenoma + hepatoce, dosed 103 weeks, study length 104 weeks): 31 mg/kg/day
TD50 (rat, strain Fischer 344, females, site: cecum + colon + rectum, lesion: polypoid adenoma, dosed 40 weeks, study length 66 weeks): 217 mg/kg/day
TD50 (rat, strain Fischer 344, females, site: cecum + colon + rectum, lesion: polypoid adenoma, dosed 66 weeks, study length 66 weeks): 1270 mg/kg/day
TD50 (rat, strain Fischer 344, females, site: cecum + colon + rectum, lesion: polypoid adenoma, dosed 103 weeks, study length 104 weeks): 72.9 mg/kg/day
TD50 (rat, strain Fischer 344, females, site: colon + rectum, lesion: adenocarcinoma, dosed 103 weeks, study length 104 weeks): 414 mg/kg/day
TD50 (rat, strain Fischer 344, females, site: kidney, lesion: tubule adenoma + tubule carcinoma, dosed 40 weeks, study length 66 weeks): 418 mg/kg/day
TD50 (rat, strain Fischer 344, females, site: kidney, lesion: tubule adenoma + tubule carcinoma, dosed 66 weeks, study length 66 weeks): 1520 mg/kg/day
TD50 (rat, strain Fischer 344, females, site: kidney, lesion: tubule adenoma + tubule carcinoma, dosed 103 weeks, study length 104 weeks): 388 mg/kg/day
TD50 (rat, strain Fischer 344, females, site: kidney, lesion: tubule adenoma, dosed 40 weeks, study length 66 weeks): 418 mg/kg/day
TD50 (rat, strain Fischer 344, females, site: kidney, lesion: tubule adenoma, dosed 66 weeks, study length 66 weeks): 1520 mg/kg/day
TD50 (rat, strain Fischer 344, females, site: kidney, lesion: tubule adenoma, dosed 103 weeks, study length 104 weeks): 388 mg/kg/day
TD50 (rat, strain Fischer 344, females, site: liver, lesion: hepatocellular adenoma + hepatoblastoma + hepatocellular carcinoma, dosed 40 weeks, study length 66 weeks): 121 mg/kg/day
TD50 (rat, strain Fischer 344, females, site: liver, lesion: hepatocellular adenoma + hepatoblastoma + hepatocellular carcinoma, dosed 66 weeks, study length 66 weeks): 121 mg/kg/day
TD50 (rat, strain Fischer 344, females, site: liver, lesion: hepatocellular adenoma + hepatoblastoma + hepatocellular carcinoma, dosed 103 weeks, study length 104 weeks): 40.1 mg/kg/day
TD50 (rat, strain Fischer 344, females, site: liver, lesion: hepatocellular adenoma + hepatocellular carcinoma, dosed 40 weeks, study length 66 weeks): 121 mg/kg/day
TD50 (rat, strain Fischer 344, females, site: liver, lesion: hepatocellular adenoma + hepatocellular carcinoma, dosed 66 weeks, study length 66 weeks): 121 mg/kg/day
TD50 (rat, strain Fischer 344, females, site: liver, lesion: hepatocellular adenoma + hepatocellular carcinoma, dosed 103 weeks, study length 104 weeks): 40.1 mg/kg/day
TD50 (rat, strain Fischer 344, females, site: liver, lesion: hepatocellular adenoma, dosed 40 weeks, study length 66 weeks): 191 mg/kg/day
TD50 (rat, strain Fischer 344, females, site: liver, lesion: hepatocellular adenoma, dosed 66 weeks, study length 66 weeks): 219 mg/kg/day
TD50 (rat, strain Fischer 344, females, site: liver, lesion: hepatocellular adenoma, dosed 103 weeks, study length 104 weeks): 53.9 mg/kg/day
TD50 (rat, strain Fischer 344, females, site: liver, lesion: hepatocellular carcinoma, dosed 40 weeks, study length 66 weeks): 167 mg/kg/day
TD50 (rat, strain Fischer 344, females, site: liver, lesion: hepatocellular carcinoma, dosed 66 weeks, study length 66 weeks): 124 mg/kg/day
TD50 (rat, strain Fischer 344, females, site: liver, lesion: hepatocellular carcinoma, dosed 103 weeks, study length 104 weeks): 88.4 mg/kg/day
